# Measured values published in PubChem BioAssay (NCI).
#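 Briefly, cells in 96-well plates were exposed to five compound concentrations for 48 h, and endpoints were estimated by linear interpolation. The concentration for 50% growth inhibition is given as GI50. TGI denotes the concentration required for complete inhibition of growth.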
# Tests used:
# Experiment in all cases: inhibition of tumour cell growth, NCI panel, 48 h
# MDA-MB-231 breast = tested on: MDA-MB-231 breast
# OVCAR-3 ovarian = tested on: OVCAR-3 ovarian
# SK-OV-3 ovarian = tested on: SK-OV-3 ovarian
# HOP-62 NSCLC = tested on: HOP-62 NSCLC
# UACC-257 melanoma = tested on: UACC-257 melanoma
# LOX IMVI melanoma = tested on: LOX IMVI melanoma
# UACC-62 melanoma = tested on: UACC-62 melanoma
# NCI-H23 lung = tested on: NCI-H23 lung
# SNB-19 CNS = tested on: SNB-19 CNS
# OVCAR-8 ovarian = tested on: OVCAR-8 ovarian
SMILES,GI50 (MDA-MB-231 breast),TGI (MDA-MB-231 breast),GI50 (OVCAR-3 ovarian),TGI (OVCAR-3 ovarian),GI50 (SK-OV-3 ovarian),TGI (SK-OV-3 ovarian),GI50 (HOP-62 NSCLC),TGI (HOP-62 NSCLC),GI50 (UACC-257 melanoma),TGI (UACC-257 melanoma),GI50 (LOX IMVI melanoma),TGI (LOX IMVI melanoma),GI50 (UACC-62 melanoma),TGI (UACC-62 melanoma),GI50 (NCI-H23 lung),TGI (NCI-H23 lung),GI50 (SNB-19 CNS),TGI (SNB-19 CNS),GI50 (OVCAR-8 ovarian),TGI (OVCAR-8 ovarian)
O=C(Nc1ccccc1O)c1ccc(CNc2ccnc(C(F)(F)F)c2)cc1,9.29 µM,50.6 µM,4.88 µM,21.9 µM,5.41 µM,41.7 µM,5.54 µM,47.6 µM,8.4 µM,> 100 µM,2.8 µM,46 µM,1.3 µM,17.6 µM,4.72 µM,81.4 µM,10.4 µM,33.9 µM,5.15 µM,> 100 µM
Clc1ccc(C2=Nn3c(nnc3-c3cc(Cl)cc(Cl)c3Cl)SC2)cc1,23.3 µM,97.1 µM,21.2 µM,50.8 µM,17.6 µM,44.5 µM,14.5 µM,32.5 µM,33.2 µM,> 100 µM,27.1 µM,> 100 µM,21.6 µM,70.9 µM,22.1 µM,78.8 µM,15.6 µM,36.2 µM,38.3 µM,> 100 µM
COc1cc2c3c(n(CCCNCCCNCCCNCCCN)c(=O)c2cc1OC)-c1cc2c(cc1C3=O)OCO2,2.43 µM,7.79 µM,1.57 µM,3.88 µM,8.52 µM,> 100 µM,3.01 µM,13 µM,3.72 µM,17.2 µM,1.15 µM,3.25 µM,1.68 µM,6.19 µM,1.5 µM,3.86 µM,2.23 µM,15.4 µM,2.19 µM,10.8 µM
CCCCCCCCCc1cc[n+](CC(=O)c2ccc([N+](=O)[O-])cc2)cc1,0.447 µM,1.7 µM,1.04 µM,2.28 µM,1.66 µM,3.18 µM,1.05 µM,2.39 µM,1.47 µM,3.2 µM,1.66 µM,3.19 µM,1.23 µM,2.54 µM,1.01 µM,2.56 µM,0.478 µM,1.8 µM,0.604 µM,2.13 µM
CC#C/C(=N\OC[C@H]1COCCN1)c1ccc2ncnc(Nc3ccc(OCc4cccc(F)c4)c(Cl)c3)c2c1,1.72 µM,3.14 µM,1.43 µM,2.94 µM,0.0176 µM,1.35 µM,3 µM,11.3 µM,1.85 µM,3.45 µM,1.75 µM,3.29 µM,1.68 µM,3.11 µM,1.74 µM,3.41 µM,1.3 µM,2.69 µM,1.76 µM,4.27 µM
COc1ccc(-c2nc(C(=O)c3ccccc3)n(CC(=O)c3ccccc3)c2-c2ccc(OC)cc2)cc1,> 100 µM,> 100 µM,> 100 µM,> 100 µM,> 100 µM,> 100 µM,> 100 µM,> 100 µM,> 100 µM,> 100 µM,> 100 µM,> 100 µM,> 100 µM,> 100 µM,> 100 µM,> 100 µM,> 100 µM,> 100 µM,> 100 µM,> 100 µM
CN1CCN(c2ccc(Nc3nc(N)c(C(=O)c4ccc5c(c4)OCCO5)s3)cc2)CC1,3.22 µM,9.94 µM,4.05 µM,9.69 µM,4.36 µM,10.6 µM,5.18 µM,13.2 µM,3.97 µM,12.6 µM,3.2 µM,7.21 µM,4.19 µM,9.35 µM,3.69 µM,11.3 µM,4.14 µM,24.3 µM,5.94 µM,16.7 µM
CS(=O)(=O)CCNCc1ccc(-c2ccc3ncnc(Nc4ccc(OCc5cccc(F)c5)c(C(F)(F)F)c4)c3c2)o1,3.78 µM,9.83 µM,4.07 µM,8.47 µM,3.61 µM,9.86 µM,4.03 µM,8.27 µM,3.86 µM,7.68 µM,3.96 µM,8.13 µM,3.94 µM,7.48 µM,3.88 µM,8.51 µM,4.81 µM,11.4 µM,4.76 µM,11.2 µM
COc1ccc(/C=C2\CC(C)CC3C2=NN(C(C)=O)C3c2ccc(OC)cc2)cc1 (stereo not given),16.4 µM,35.7 µM,18.7 µM,42.4 µM,28.7 µM,> 100 µM,20 µM,41.4 µM,19.8 µM,45 µM,17.6 µM,38.3 µM,17 µM,35.3 µM,19.6 µM,45.2 µM,27.6 µM,> 100 µM,28.1 µM,> 100 µM
O=c1c(O)cccc2cc(O)c(O)c(O)c12,7.5 µM,> 100 µM,6.57 µM,32.3 µM,> 100 µM,> 100 µM,> 100 µM,> 100 µM,5.84 µM,> 100 µM,13.2 µM,> 100 µM,6.4 µM,> 100 µM,8.89 µM,> 100 µM,8.44 µM,> 100 µM,27.3 µM,> 100 µM
COC(=O)Nc1nc2ccc(C(=O)c3ccc(N(C)C4COC4)cc3)cc2[nH]1,0.608 µM,> 100 µM,0.375 µM,> 100 µM,0.536 µM,> 100 µM,0.471 µM,> 100 µM,> 100 µM,> 100 µM,0.761 µM,> 100 µM,0.38 µM,> 100 µM,0.713 µM,> 100 µM,0.435 µM,> 100 µM,0.482 µM,> 100 µM
N#CSc1c[nH]c2ccc(/C=C/C(=O)/C=C(/C=C/c3ccc4[nH]cc(SC#N)c4c3)OB(F)F)cc12,0.917 µM,2.34 µM,0.264 µM,0.762 µM,25.3 µM,88.3 µM,3.86 µM,38.9 µM,2.82 µM,33.6 µM,0.202 µM,0.571 µM,1.2 µM,2.85 µM,0.947 µM,3.86 µM,3.32 µM,14.7 µM,0.577 µM,> 100 µM
C[C@@H](CN1CC(=O)NC(=O)C1)N1CC(=O)NC(=O)C1,,679 µM,,767 µM,,1870 µM,,328 µM,,2390 µM,,729 µM,,570 µM,,791 µM,,1370 µM,,747 µM
O=C(/C=N/O)Nc1cc(Cl)c(Cl)cc1Cl,,60 µM,,79.5 µM,,> 100 µM,,> 100 µM,,87.4 µM,,> 100 µM,,76.3 µM,,86.6 µM,,> 100 µM,,> 100 µM
CCN(CC)c1ccc2c(c1)Oc1nc(N)c(C#N)c(N)c1C2Sc1ccc(OC)cc1 (stereo not given),1.6 µM,3.13 µM,1.69 µM,3.1 µM,1.92 µM,3.38 µM,1.88 µM,3.43 µM,1.98 µM,3.48 µM,1.56 µM,3.07 µM,1.72 µM,3.34 µM,1.52 µM,3.02 µM,1.8 µM,3.26 µM,1.87 µM,3.76 µM
